These are literature values, as cited in patent publication US20170080013A1, “METHODS AND COMPOSITIONS FOR DERMATOLOGICAL USE COMPRSING HYDROCORTISONE ACETATE AND BIOPOLYMERS” (APEX LABORATORIES PRIVATE LIMITED, priority 2015, published 2017).

In the case of `CC(=O)OCC(=O)[C@@]1(O)CC[C@H]2[C@@H]3CCC4=CC(=O)CC[C@]4(C)[C@H]3[C@@H](O)C[C@@]21C` [Hydrocortisone acetate, 11β, 17-dihydroxy-3, 20-dioxopregn-4-en-21-yl acetate], the Solubility in alcohol entry (alcohol) was “slightly soluble”. Moreover, for the setting “chloroform”, the Solubility in chloroform result was “slightly soluble”. Under “water”, the Solubility in water entry is listed as “insoluble”.
